Reference: PubChem BioAssay (NCI)
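Cells were grown in 96-well plates and exposed to each compound for 48 hours at five concentrations; endpoints were interpolated linearly between bracketing concentrations, or set to the highest concentration if not reached. The concentration for 50% growth inhibition is given as GI50. TGI denotes the concentration required for complete inhibition of growth.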

What was measured:
Assay in all cases: NCI anticancer screen, dose series, 48 h
PC-3 prostate = system: PC-3 prostate
HT29 colon = system: HT29 colon
NCI-H522 lung = system: NCI-H522 lung
SK-MEL-2 melanoma = system: SK-MEL-2 melanoma
HOP-62 NSCLC = system: HOP-62 NSCLC
MALME-3M melanoma = system: MALME-3M melanoma
KM12 colon = system: KM12 colon
SK-OV-3 ovarian = system: SK-OV-3 ovarian
BT-549 breast = system: BT-549 breast
U251 CNS = system: U251 CNS
OVCAR-8 ovarian = system: OVCAR-8 ovarian
OVCAR-4 ovarian = system: OVCAR-4 ovarian
CCRF-CEM leukemia = system: CCRF-CEM leukemia
A549 NSCLC = system: A549 NSCLC
M14 melanoma = system: M14 melanoma
786-0 renal = system: 786-0 renal
SK-MEL-5 melanoma = system: SK-MEL-5 melanoma
DU-145 prostate = system: DU-145 prostate
OVCAR-5 ovarian = system: OVCAR-5 ovarian
HCC-2998 colon = system: HCC-2998 colon
A498 renal = system: A498 renal
IGROV1 ovarian = system: IGROV1 ovarian
SN12C renal = system: SN12C renal
NCI-H226 lung = system: NCI-H226 lung
COLO 205 colon = system: COLO 205 colon
TK-10 renal = system: TK-10 renal
SF-295 CNS = system: SF-295 CNS
HCT-15 colon = system: HCT-15 colon
SNB-75 CNS = system: SNB-75 CNS
SK-MEL-28 melanoma = system: SK-MEL-28 melanoma
RPMI-8226 leukemia = system: RPMI-8226 leukemia
MCF7 breast = system: MCF7 breast
NCI/ADR-RES ovarian = system: NCI/ADR-RES ovarian
NCI-H23 lung = system: NCI-H23 lung
MDA-MB-231 breast = system: MDA-MB-231 breast
OVCAR-3 ovarian = system: OVCAR-3 ovarian
SNB-19 CNS = system: SNB-19 CNS
UO-31 renal = system: UO-31 renal
MOLT-4 leukemia = system: MOLT-4 leukemia
MDA-MB-468 breast = system: MDA-MB-468 breast
SF-268 CNS = system: SF-268 CNS
UACC-257 melanoma = system: UACC-257 melanoma
CAKI-1 renal = system: CAKI-1 renal
HS 578T breast = system: HS 578T breast
ACHN renal = system: ACHN renal
MDA-MB-435 = system: MDA-MB-435
NCI-H460 lung = system: NCI-H460 lung
HOP-92 NSCLC = system: HOP-92 NSCLC
T-47D breast = system: T-47D breast
LOX IMVI melanoma = system: LOX IMVI melanoma
UACC-62 melanoma = system: UACC-62 melanoma
SW-620 colon = system: SW-620 colon
HL-60(TB) leukemia = system: HL-60(TB) leukemia
EKVX NSCLC = system: EKVX NSCLC
SF-539 CNS = system: SF-539 CNS
SR leukemia = system: SR leukemia
HCT-116 colon = system: HCT-116 colon
K-562 leukemia = system: K-562 leukemia
RXF 393 renal = system: RXF 393 renal

## COC(=O)CNC(=O)COc1c(OC)c(OC)cc2oc(-c3cccc(C(=O)Nc4ccc(Cl)cc4)c3)cc(=O)c12
PC-3 prostate
  GI50: 10.3 µM
  TGI: 33.7 µM
HT29 colon
  GI50: 6.79 µM
  TGI: > 100 µM
NCI-H522 lung
  GI50: 7.22 µM
  TGI: 20.1 µM
SK-MEL-2 melanoma
  GI50: 10.1 µM
  TGI: 25 µM
HOP-62 NSCLC
  GI50: 3.56 µM
  TGI: 11.5 µM
MALME-3M melanoma
  GI50: 4.75 µM
  TGI: 17.7 µM
KM12 colon
  GI50: 27.5 µM
  TGI: > 100 µM
SK-OV-3 ovarian
  GI50: 11.1 µM
  TGI: 23.6 µM
BT-549 breast
  GI50: 3.05 µM
  TGI: 12.3 µM
U251 CNS
  GI50: 4.82 µM
  TGI: 16.5 µM
OVCAR-8 ovarian
  GI50: 3.64 µM
  TGI: 11.8 µM
OVCAR-4 ovarian
  GI50: 2.95 µM
  TGI: 10.8 µM
CCRF-CEM leukemia
  GI50: > 100 µM
  TGI: > 100 µM
A549 NSCLC
  GI50: 7.25 µM
  TGI: 20.6 µM
M14 melanoma
  GI50: 7.98 µM
  TGI: 25 µM
786-0 renal
  GI50: 5.19 µM
  TGI: 17.2 µM
SK-MEL-5 melanoma
  GI50: 3.75 µM
  TGI: 14.7 µM
DU-145 prostate
  GI50: 10.6 µM
  TGI: 28.3 µM
OVCAR-5 ovarian
  GI50: 7.2 µM
  TGI: 40.1 µM
HCC-2998 colon
  GI50: 15.4 µM
  TGI: 70.8 µM
A498 renal
  GI50: 16.3 µM
  TGI: 34.5 µM
IGROV1 ovarian
  GI50: 11.4 µM
  TGI: 24.8 µM
SN12C renal
  GI50: 4.28 µM
  TGI: 17 µM
NCI-H226 lung
  GI50: 4.01 µM
  TGI: 27.6 µM
COLO 205 colon
  GI50: 4.19 µM
  TGI: 17.8 µM
TK-10 renal
  GI50: 16.1 µM
  TGI: 34.6 µM
SF-295 CNS
  GI50: 13.9 µM
  TGI: 26.9 µM
HCT-15 colon
  GI50: 14.8 µM
  TGI: > 100 µM
SNB-75 CNS
  GI50: 11.9 µM
  TGI: 37.4 µM
SK-MEL-28 melanoma
  GI50: 5.9 µM
  TGI: 18.9 µM
RPMI-8226 leukemia
  GI50: 6.51 µM
  TGI: > 100 µM
MCF7 breast
  GI50: 6.05 µM
  TGI: 23.9 µM
NCI/ADR-RES ovarian
  GI50: 9.62 µM
  TGI: 73.4 µM
NCI-H23 lung
  GI50: 7.19 µM
  TGI: 20 µM
MDA-MB-231 breast
  GI50: 3.57 µM
  TGI: 13 µM
OVCAR-3 ovarian
  GI50: 12.4 µM
  TGI: 37.5 µM
SNB-19 CNS
  GI50: 10.6 µM
  TGI: 22.4 µM
UO-31 renal
  GI50: 13.8 µM
  TGI: 26.7 µM
MOLT-4 leukemia
  GI50: > 100 µM
  TGI: > 100 µM
MDA-MB-468 breast
  GI50: 27.2 µM
  TGI: > 100 µM
SF-268 CNS
  GI50: 15.1 µM
  TGI: 42.9 µM
UACC-257 melanoma
  GI50: 7.35 µM
  TGI: 24.9 µM
CAKI-1 renal
  GI50: 18.9 µM
  TGI: 41.6 µM
HS 578T breast
  GI50: 4.28 µM
  TGI: 28.5 µM
ACHN renal
  GI50: 5.84 µM
  TGI: 18.7 µM
MDA-MB-435
  GI50: 6.57 µM
  TGI: 21.9 µM
NCI-H460 lung
  GI50: 4.03 µM
  TGI: 15.1 µM
HOP-92 NSCLC
  GI50: 4.04 µM
  TGI: 25.9 µM
T-47D breast
  GI50: 8.16 µM
  TGI: 31.1 µM
LOX IMVI melanoma
  GI50: 5.02 µM
  TGI: 19.5 µM
UACC-62 melanoma
  GI50: 6.1 µM
  TGI: 19.4 µM
SW-620 colon
  GI50: 14 µM
  TGI: 69.7 µM
HL-60(TB) leukemia
  GI50: 13.3 µM
  TGI: > 100 µM
EKVX NSCLC
  GI50: 12.4 µM
  TGI: 30.1 µM
SF-539 CNS
  GI50: 8.6 µM
  TGI: 20.9 µM
SR leukemia
  GI50: 9.98 µM
  TGI: > 100 µM
HCT-116 colon
  GI50: 13.9 µM
  TGI: 48.5 µM
K-562 leukemia
  GI50: 25.6 µM
  TGI: > 100 µM
RXF 393 renal
  GI50: 3.54 µM
  TGI: 14.9 µM
